How the values were obtained:
[1] = test system: rMC-1 cells; experiment: Viability assay (DAPI exclusion test), rMC-1; conditions: rMC-1 cells in culture after incubation
[2] = test system: R28 cells; experiment: Viability assay (DAPI exclusion test), R28; conditions: R28 cells in culture after incubation

COc1cccc2c1C(=O)c1c(O)c3c(c(O)c1C2=O)C[C@@](O)(C(=O)CO)C[C@@H]3O[C@H]1C[C@H](N)[C@H](O)[C@H](C)O1 [Doxorubicin]
cell viability (DAPI exclusion) [1]: significant nonviability staining | cell viability (DAPI exclusion) [2]: significant nonviability staining

From patent US20140163082A1, “PYRAZOLYL COMPOUNDS FOR USE IN REVERSING REACTIVE GLIOSIS” (priority 2011, published 2014)
